Source: article PMC8367944, “Phase 1 study of the ATR inhibitor berzosertib in combination with cisplatin in patients with advanced solid tumours” (British Journal of Cancer, 2021)
Entries after “also recorded” stand apart in the source; their conditions may differ. Where two headings read alike, the source gives them in different places.

Assays:
[1] = tested on: patients with advanced solid tumours; test: Phase 1 safety and tolerability: TEAEs (NCI CTCAE v4.0), DLTs, MTD/RP2D; assay type: in vivo
Method: Part B was a single-arm, 3 + 3 dose-escalation Phase 1 study evaluating the safety, tolerability and PK of berzosertib in combination with cisplatin in patients with advanced solid tumours.
Following screening and baseline evaluations, patients received berzosertib i.v. (90 mg/m^2; days 2 and 9) and cisplatin (40 mg/m^2; day 1), administered in 21-day cycles. Based on safety data from two concurrent studies,[14],[15] a 7- to 14-day lead-in period with single doses of berzosertib (140 mg/m^2) alone was also planned.
For the initial dose escalation, the dose of cisplatin was held constant, while the dose of berzosertib was escalated by a maximum of 50% in each cohort. After the berzosertib dose was escalated, the dose of cisplatin could be increased in order to find the maximum-tolerated dose (MTD) of berzosertib in combination with cisplatin; the MTD was defined as the highest dose of berzosertib tolerated in combination with a cisplatin dose between 60 and 100 mg/m^2, inclusive. […] Patients received berzosertib with cisplatin until progressive disease (PD) or unacceptable toxicity.
Safety evaluations (primary endpoint) included continuous assessment of TEAEs, which were graded using National Cancer Institute Common Terminology Criteria for Adverse Events version 4.0. […] Safety was evaluated throughout treatment and was used to inform dose-escalation decisions. […]

[2] = Plasma and urine pharmacokinetics of berzosertib (LC-MS/MS, non-compartmental analysis); assay type: in vivo, human; settings: for AUC(0-inf) / clearance / Cmax / half-life / Vd: plasma; for AUC(0-inf): read-out: AUC0–∞, mean (%CV); for clearance: read-out: CL, mean (%CV) (converted); for Cmax: read-out: Cmax, mean (%CV); for Vd: read-out: Vss, mean (%CV)
Method: In cycle 1, plasma samples for PK analysis were collected both pre- and post-dose on days 2–5 (pre-dose, 0.5 h before the end of infusion, at the end of infusion, and 0.5, 1, 2, 3, 7, 23, 47, and 71 h after end of infusion) and day 9 (pre-dose). Plasma samples were also collected on day 2 of cycle 2 (pre-dose and 2 h after the end of infusion). Cumulative urine was also collected for PK assessments on days 2 and 3 of cycle 1 (pre-dose to 3, 3–7, 7–11, and 11–23 h). Berzosertib concentrations were quantified using a validated liquid chromatography tandem-mass spectrometry method and plasma PK were characterised by non-compartmental analyses using Phoenix WinNolin 6.4 (Certara USA Inc., Princeton, NJ, USA).
The safety set was defined as all patients who received at least one dose of study drug; patients within the safety set were further classified into those who received at least one dose of the study drug in the lead-in period (lead-in safety set) and those who received at least one dose during the combination period (combination safety set). PK data were collected in the PK analysis set, defined as all enrolled patients who received at least one dose of berzosertib and provided at least one measurable post-dose sample. For efficacy analyses, the full analysis set was used, comprising all enrolled patients who had received a baseline scan, at least one dose of study drug, and had at least one post-baseline disease assessment.
Standard non-compartmental methods were used to determine PK parameters. Continuous variables were summarised using descriptive summary statistics. Categorical variables (e.g. incidence of a TEAE) were summarised using frequency counts and percentages. TEAEs observed were summarised by system organ class and preferred term according to the Medical Dictionary for Regulatory Activities v.18.0 or higher.

ATR = tested on: ATR; parameters: method as in PMID 25010037; settings: ATR inhibitor; cited from earlier work
[3] = tested on: patients with advanced solid tumours; settings: on second infusion of berzosertib; idiosyncratic, no clear relationship to dose; stated as recognised, no reference given; cited from earlier work
[4] = human, intravenous, cycle 1, day 2, berzosertib and cisplatin, berzosertib 90 mg/m^2, n = 2
[5] = human, intravenous, cycle 1, day 2, berzosertib and cisplatin, berzosertib 140 mg/m^2, n = 8
[6] = human, intravenous, cycle 1, day 2, berzosertib and cisplatin, berzosertib 210 mg/m^2, n = 17
[7] = human, iv, 140 mg/m2, lead-in period, berzosertib alone, 140 mg/m^2 i.v., n = 4

Compound: CNCc1ccc(-c2cc(-c3nc(-c4ccc(S(=O)(=O)C(C)C)cc4)cnc3N)on2)cc1 [berzosertib]
- DLTs during the monotherapy lead-in period ([1]; berzosertib 140 mg/m^2 alone, n = 4): no DLTs
- trends in laboratory results, vital signs or ECG parameters attributable to berzosertib ([1]; serum chemistry, haematology, urinalysis): no clinically meaningful trends
- dose proportionality of plasma exposure ([2]; 90–210 mg/m^2, based on mean plasma concentrations and Cmax): approximately dose proportional
- effect of cisplatin on berzosertib pharmacokinetics ([2]; cisplatin given 24 h before berzosertib): no apparent effect; also recorded: does not affect the PK profile
- mean percentage of berzosertib excreted in the urine ([2]; cumulative urine, days 2 and 3 of cycle 1): 6%
- CL renal ([2]; human, intravenous, cumulative urine, days 2 and 3 of cycle 1, read-out: mean renal clearance (converted)): 78.3 mL/min
- AUC(0-inf) [2, 4]: 2.82 µg·h/mL
- clearance [2, 4]: 1020 mL/min
- Cmax [2, 4]: 0.458 µg/mL
- half-life ([2]; human, intravenous, cycle 1, day 2, berzosertib and cisplatin, berzosertib 90 mg/m^2, n = 2, read-out: T1/2, mean (%CV) (converted)): 17 h
- Vd [2, 4]: 1260 L
- AUC(0-inf) [2, 5]: 4.87 µg·h/mL
- clearance [2, 5]: 912 mL/min
- Cmax [2, 5]: 0.854 µg/mL
- Vd [2, 5]: 1060 L
- AUC(0-inf) [2, 6]: 6.74 µg·h/mL
- clearance [2, 6]: 1040 mL/min
- Cmax [2, 6]: 1.23 µg/mL
- Vd [2, 6]: 1270 L
- AUC(0-inf) [2, 7]: 5.67 µg·h/mL
- clearance [2, 7]: 898 mL/min
- Cmax [2, 7]: 0.652 µg/mL
- half-life ([2]; human, intravenous, 140 mg/m^2, berzosertib monotherapy, four patients, read-out: mean terminal elimination half-life (converted)): ~17 h
- half-life ([2]; human, intravenous, 140 mg/m^2, plasma, cycle 1, day 2, berzosertib and cisplatin, berzosertib 140 mg/m^2, n = 8, read-out: T1/2, mean (%CV) (converted)): 17.5 h
- half-life ([2]; human, intravenous, 210 mg/m^2, plasma, cycle 1, day 2, berzosertib and cisplatin, berzosertib 210 mg/m^2, n = 17, read-out: T1/2, mean (%CV) (converted)): 17.3 h
- half-life ([2]; human, iv, 140 mg/m2, plasma, lead-in period, berzosertib alone, 140 mg/m^2 i.v., n = 4, read-out: T1/2, mean (%CV) (converted)): 20.3 h
- IC50 (ATR): 0.019 µM
- patients with acute hypersensitivity [3]: < 5%
